In assay [1] the test system is reporter viruses pseudotyped with HIV-1JR-FL envelope. In kind it is cell-based. As to conditions: HIV-1 Envelope JRFL; named 1st inhibitor with 2nd inhibitor PRO 140. An excerpt:
(§1) A self-inactivating (SIN) vector was derived from the pNL4-3ΔEnv-luciferase vector (Dragic et al. 1996) by deleting 507 basepairs in the U3 region of the 3′ long terminal repeat (LTR) so as to remove the TATA, box and transcription factor binding sites. The human cytomegalovirus promoter was inserted upstream of the luciferase (luc) gene to enable expression of luciferase following integration.
(§2) SF162 envelopes were generated by cotransfection of 293T cells with the SIN vector and the appropriate pcDNA env-expressing vector as previously described (Dragic et al, 1996). […] Cultures were incubated for 72 h at 37°C. in DMEM containing 10% fetal bovine serum, […], 0.3 mg/mL geneticin, antibiotics, and 0.5% DMSO. Luciferase activity (relative light units or RLU) was measured using BrightGlo reagent (Promega, Madison, Wis.) according to the manufacturer's instructions. Percent inhibition was calculated as: (1-RLU in the presence of inhibitor/RLU in the absence of inhibitor)×100.
(§3) Experimental design and data analysis were based on the combination index (CI) method (Chou et al. 1991; Chou et al. 1984). Compounds were tested individually and in combination at a fixed molar ratio over a range of serial dilutions. […] The mutually exclusive CI formula was used for combinations of CCR5 inhibitors, while the mutually non-exclusive formula was utilized for combinations of inhibitors to distinct targets (Chou et al. 1991). Each test was conducted 4-12 times. Synergy, additivity and antagonism are indicated by CI<1, CI=1 and CI>1, respectively.
(§4) In the Bonferroni correction, P=.alpha,/h, where n is the number of comparisons. Twenty-two synergy comparisons (11 compounds×2 CI values) were made based on data generated in the membrane fusion assay, resulting in a corrected P value of0.0023.

Assay [2] concerns reporter viruses pseudotyped with HIV-1SF162 envelope. The format is cell-based. As to conditions: HIV-1 Envelope SF162; named 1st inhibitor with 2nd inhibitor PRO 140.
Text: as §1, §2, §3, §4

For assay [3], the system named is HIV-1JR-FL envelope-mediated membrane fusion. The format is cell-based.
Text: HIV-1 envelope-mediated membrane fusion was examined using a fluorescence resonance energy transfer (RET) assay (Litwin et al. 1996) with modifications. Briefly, HeLa cells that stably express HIV-1JR-FL gp120/gp41 (Litwin et al. 1996) and CEM.NKR-CCR5 cells (NTH AIDS Research and Reference Reagent Program, (Spenlehauer et al. 2001; Trkola et al. 1999)) were labeled separately overnight with fluorescein octadecyl ester (F18; Molecular Probes, Eugene, Oreg.) and rhodamine octadecyl ester (R18; Molecular Probes), respectively. Cells were washed in phosphate-buffered saline containing 15% feral bovine serum (PBSF) and co-seeded at 15,000 cells/well into a 384-well plate. Inhibitors were added, and the plates were incubated in PBSF plus 0.5% dimethlysulfoxide (DMSO) for 4h at 37°C. prior to measurement of RET using a Victor^2 plate reader (Perkin-Elmer, Boston, Mass.) as previously described (Litwin et al. 1996). The CD4 mAb Leu3a was used as a control inhibitor, and percent inhibition was calculated as: (RET in the absence of inhibitor—RET in the presence of inhibitor)/(RET in the absence of inhibitor—RET in the presence of Leu3a)×100.
as §3, §4

Assay [4] concerns HIV-1 Env-mediated fusion of HeLa-EnvJRFL and CEM NKR-CCR5 cells. As to the kind of experiment: HIV-1 RET cell-cell fusion assay (Part II, Example 1). The format is cell-based. As to conditions: PRO 140 in combination with the named compound; for Mean CF: 1:1 molar ratio, Combination Index at IC50 value. As for the experimental part: and then diluted in DMSO to 200× the final, concentration to be utilized in the antiviral assay. Serial dilutions of small molecules were conducted in DMSO. Subsequent dilutions were conducted in medium to achieve a final DMSO concentration in the assay of 0.5%. Peptides and mAbs were diluted in PBS in the absence of DMSO.
HeLa cells were engineered to express HIV-1 gp120/gp41 from the macrophage-tropic primary isolate JRFL as described (HeLa-EnvJRFL: Litwin et al., 1996). Briefly, the HIV-1LA1 Env gene was excised from the plasmid pMA243 (Dragic et al., 1992) and the HIV-1JRFL Env gene was inserted. The HIV-1.sub JRFL Env gene was amplified from the plasmid pUCFL112-1 (Koyanagi et al., 1987). The resulting plasmid, designated JR-FL-pMA243, was sequenced by standard methods and transfected into HeLa cells using lipofectin (Gibco BRL/Invitrogen, Carlsbad, Calif.). HeLa-Env.sub JRFL transfectants were selected in methotrexate (Sigma, St. Louis, Mo.) and cloned twice by limiting dilution. The transduced human T cell leukemia line CEM NKR-CCR5 cells were obtained from the NIH AIDS Research and Reference Program (Cat. No. 458).
The HIV-1 RET assay has been described in detail previously (Litwin et al., 1996). Briefly, fluorescein octadecyl ester (F18; Molecular Probes, Eugene, Oreg.; 5 mg/ml in ethanol), was diluted 1:800 in DMEM labeling medium (DMEM; Invitrogen, Carlsbad, Calif.) with 10% fetal bovine serum (FBS; HyClone, Logan, Utah) and adjusted to an A506 of 0.34.+−0.10%. Octadecyl rhodamine B chloride (R18; Molecular Probes; 10 mg/ml in ethanol) was diluted 1:2050 in labeling medium and adjusted to an A565 of 0.52.+−0.10%. Both dyes were further diluted 2-fold by addition to cells in T75-cm^2 flasks. HeLa-EnvJRFL and CEM NKR-CCR5 cells were incubated overnight in F18- and R18-containing culture medium, respectively. The following day, medium from HeLa-EnvJRFL, cells was removed and 10 ml of 0.5 mM EDTA was added and incubated at 37°C. for 5 min. […] The centrifugation/wash step was repeated twice, after which the cells were counted and concentrations adjusted to 1.5×10^6 cells/ml. […] The plates were then read on a fluorescence plate reader (Victor^2, Perkin Elmer, Boston, Mass.) using the excitation/emission filter combinations shown in Table 5.
The “% Inhibition” was calculated according to the following formula: […]
Fifty percent inhibition (IC50) values were determined by fitting the inhibition data with a non-linear, four-parameter, variable slope equation (GraphPad Prism 4.02; GraphPad Software, San Diego, Calif.). […]
Cooperative inhibition effects of drug combinations were determined by the method of Chou and Talalay (1984). […] Combination Index (CI) and Dose Reduction (DR) values were calculated according to the following formulas: […]

In assay [5] the target is T1, CCR5 (Homo sapiens, UniProt P51681). As to the kind of experiment: Competition binding: inhibition of PRO 140-PE binding to CEM.NKR-CCR5 cells. As to conditions: for inhibition of PRO 140-PE binding to CEM.NKR-CCR5 cells: in words. Further details: host or cells: CEM.NKR-CCR5 (transduced human T cell leukemia line). On the procedure: Azide was added to block CCR5 internalization during the assay.
T1 sequence (P51681 whole entry): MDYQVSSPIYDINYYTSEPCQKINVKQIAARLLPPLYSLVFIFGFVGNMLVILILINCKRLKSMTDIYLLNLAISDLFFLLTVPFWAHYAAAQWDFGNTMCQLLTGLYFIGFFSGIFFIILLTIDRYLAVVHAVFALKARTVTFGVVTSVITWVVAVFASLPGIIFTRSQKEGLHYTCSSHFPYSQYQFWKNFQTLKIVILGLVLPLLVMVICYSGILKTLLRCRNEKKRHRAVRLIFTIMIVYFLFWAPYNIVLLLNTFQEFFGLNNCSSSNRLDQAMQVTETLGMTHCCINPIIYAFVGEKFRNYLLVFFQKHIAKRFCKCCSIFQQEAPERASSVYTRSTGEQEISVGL

The target of assay [6] is T1, CCR5. As to the kind of experiment: Competition binding: inhibition of 3H-UK-427,857 binding to CEM.NKR-CCR5 cells. Further details: host or cells: CEM.NKR-CCR5 (transduced human T cell leukemia line).
Text: The cells were washed in PBSA and lysed with 0.5N HCl prior to scintillation counting using a Wallac1410 instrument.
The next assay has as its system CCR5 lymphocytes. In kind it is in vivo, human. As to conditions: 2 mg/kg. On the procedure:
Individuals were treated in sequential, dose-rising cohorts of 5 subjects (4 active and 1 placebo) each and evaluated for up to 120 days post-treatment. […] Safety assessments consisted of monitoring the following: vital signs (blood pressure, pulse, temperature, etc; hematology (hemoglobin, hematocrit, leukocytes, platelets, etc.); serum chemistries (AST/ALT, alkaline phosphatase, BUN, creatinine, etc.); urinalysis (pH, specific gravity, protein, glucose, leukocytes, etc.); and ECGs (12-lead).
Whole blood specimens were combined separately with the indicated phycoerythrin-labeled anti-CCR5 antibodies or with appropriate isotype-control antibodies. Erythocytes were lysed and leukocytes were stabilized using the ImmunoPrep Reagent System (Beckman Coulter), and the cells were analyzed on a TQ Prep™ flow cytometry workstation (Beckman Coulter). Data were expressed as the percent of CCR5 cells relative to all cells gated in the analysis.
For up to 60 days post-treatment, at the times indicated in FIG. 6, blood was collected and analyzed for CCR5 lymphocyte levels.

In assay [7] the target is T1, CCR5. The assay can be described thus: RANTES-induced calcium mobilization in L1.2-CCR5 cells. In kind it is cell-based. As to conditions: FIG. 4. An excerpt: Similar results were obtained for MIP-1.alpha, and MIP-1β
For orientation: Calcium flux is commonly read through the fluorescence of an indicator in the cells.

In the next assay the test system is HIV-1. As to conditions: repeated administration; cited from earlier work.
[8] abbreviates: named 1st inhibitor with 2nd inhibitor PRO 140, equimolar.
Where [9] appears, read: named 1st inhibitor with 2nd inhibitor UK-427,857, equimolar.

Like-named read-outs stand apart in the source and are kept apart here.

With `Cc1cn([C@H]2C[C@H](N=[N+]=[N-])[C@@H](CO)O2)c(=O)[nH]c1=O` [zidovudine], the CI190 in assay [1] was 0.85 ± 0.26; in assay [2], 1.0 ± 0.38.
Consider `COc1ccnc2[nH]cc(C(=O)C(=O)N3CCN(C(=O)c4ccccc4)C[C@H]3C)c12` [BMS-378806, (R)-N-(benzoyl)-3-methyl-N′-[(4-methoxy-7-azaindol-3-yl)-oxoacetyl]-piperazine], for which the C190 in assay [3] (setting [8]) came out at 1.1 ± 0.22. Also, the CI50 in [3] (setting [8]) was determined as 1.3 ± 0.19. The CI190 worked out at 0.74 ± 0.23 in [1] and 0.82 ± 0.21 in [2].
Turning to `Cc1nnc(C(C)C)n1C1CC2CCC(C1)N2CC[C@H](NC(=O)C1CCC(F)(F)CC1)c1ccccc1` (stereo partly drawn) [UK-427,857], the “Mean CF” value in [4] came out at 0.59 ± 0.04. In assay [3] (setting [8]), the C190 worked out at 0.40 ± 0.06 and the CI50 was found to be 0.61 ± 0.5.
With `Cc1ccnc2c1NC(=O)c1cccnc1N2C1CC1` [nevirapine], the CI190 in [1] stood at 0.73 ± 0.28; in [2] it was 0.63 ± 0.19.
Turning to `COC[C@@H](c1ccc(C(F)(F)F)cc1)N1CCN(C2(C)CCN(C(=O)c3c(C)ncnc3C)CC2)C[C@@H]1C` [SCH-D], the C190 in assay [3] (setting [8]) came out at 0.36 ± 0.06; in [3] (setting [9]), 0.75 ± 0.02. The figures for the CI190 in [1] and in assay [2] were 0.18 ± 0.04 and 0.28 ± 0.11, respectively. In addition, the “impact on percent of cells gated for positive binding of PRO 140-PE” value at CCR5 [5] is on record as “little impact”. Further, the “inhibition of PRO 140-PE binding to CEM.NKR-CCR5 cells” value at CCR5 [5] is listed as “modest levels of inhibition”. At CCR5 [6], the “inhibition of 3H-UK-427,857 binding” value was “blocked ^3H-UK-427,857 binding to background levels”.

B1: PRO 140: humanized IgG4,kappa anti-CCR5 mAb; humanized version of the murine mAb PA14 (antibody, chains of the INN, looked up, V domains shown)
VH: EVQLVESGGGLVKPGGSLRLSCAASGYTFSNYWIGWVRQAPGKGLEWIGDIYPGGNYIRNNEKFKDKTTLSADTSKNTAYLQMNSLKTEDTAVYYCGSSFGSNYVFAWFTYWGQGTLVTVSS
VL: DIVMTQSPLSLPVTPGEPASISCRSSQRLLSSYGHTYLHWYLQKPGQSPQLLIYEVSNRFSGVPDRFSGSGSGTDFTLKISRVEAEDVGVYYCSQSTHVPLTFGQGTKVEIK
B1: the CI190 was found to be 0.90 ± 0.15 in [1] and 0.86 ± 0.33 in [2]. Also, the “binding of antibody 2D7 to CCR5 lymphocytes” value in the assay with CCR5 lymphocytes is recorded as “significantly decreased”. Also, the “inhibition of RANTES-induced calcium mobilization vs HIV-1JR-FL replication” value in the assay with CCR5 [7] is listed as “blocks HIV-1 but not chemokine signaling”. The “control of HIV-1 replication” value in the assay with HIV-1 was “prolonged control of HIV-1 replication without viral escape”. Besides, in the assay with CCR5 [5], the “inhibition of PRO 140-PE binding to CEM.NKR-CCR5 cells” value is “Complete inhibition”. Moreover, in the assay with CCR5 [6] (in words), the “inhibition of 3H-UK-427,857 binding” value was “blocked ^3H-UK-427,857 binding to background levels”.

B2: RANTES: CC-chemokine that serves as a natural ligand for CCR5; purchased from R&D Systems (protein, UniProt P13501 24-91, looked up)
C-C motif chemokine 5: SPYSSDTTPCCFAYIARPLPRAHIKEYFYTSGKCSNPAVVFVTRKNRQVCANPEKKWVREYINSLEMS
With B2, the “Mean CF” value in assay [4] is recorded as 0.59 ± 0.08. Also, the “Mean Dose Reduction (Cpd in combination)” value is 1.75 ± 0.28 in [4] (molar ratio 1:5) and 5.39 ± 1.13 in [4] (molar ratio 5:1). Besides, the values for the C190 in [3] (setting [8]) and in assay [3] (setting [9]) were 0.43 ± 0.05 and 0.18 ± 0.01, respectively.

Source of the values: patent US20170049884A1, “USE OF ANTI-CCR5 ANTIBODIES IN GRAFT VERSUS HOST DISEASE” (CytoDyn Inc., priority 2014, published 2017).
